Data on 18 compounds can be found in patent US10287267B2, “Isoquinolin-3-yl carboxamides and preparation and use thereof” (Samumed, LLC, priority 2016, dated 2019).

The test system of assay [1] is Tau phosphorylation at Ser396 (pSer396). Briefly: Tau phosphorylation assay (pSer396 ELISA / western blot) in SH-SY5Y cells.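 Also: EC50 for reduction of Tau pSer396 in lysed cells, measured by colorimetric ELISA or chemiluminescent western blot, both using the same pSer396 antibody.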 To be noted: Homo sapiens, read-out: pSer396 Tau EC50. In kind it is cell-based, human.
Assay [2] concerns SW480 colon carcinoma cells. Kind of assay: Cell viability assay (CellTiter-Glo). In kind it is cell-based, human. Conditions: Homo sapiens; for EC50: 96 h, SW480 cells, CellTiter-Glo, four days incubation; for inhibition at 10 µM: SW480, read-out: percent inhibition at 10 μM.
The subject of assay [3] is IL-6. Kind of assay: IL-6 inhibition in LPS-stimulated human peripheral blood mononuclear cells (HTRF).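 As to all read-outs here: IL-6 detected by HTRF with an XL665- and Cryptate-labelled anti-IL-6 antibody pair, samples run in duplicate, EC50 obtained from a four-parameter Levenberg-Marquardt curve fit.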 Format: cell-based. Conditions: Homo sapiens, PBMC; for EC50: Table 9, huPBMCs, LPS 50 ng/mL, 22 hours, dose-response starting from 10 μM; for inhibition at 10 µM: read-out: percent value in parentheses beside EC50 >10 μM.
Description: After 22 hour incubation, a mixture of anti-IL6 XL665 and anti-IL-6 Cryptate diluted in reconstitution buffer (Catalog #62IL6PEC, Cisbio Inc., Bedford, Mass.) was added to each well. […] All samples were processed in duplicate. […] EC50 was determined using software generated by Dotmatics Limited (Windhill Bishops Stortford Herts, UK) using the Levenberg-Marquardt 4 parameter fitting procedure with finite different gradients.
The target in assay [4] is recombinant GSK3β kinase (Homo sapiens (Human), UniProt P49841). Briefly: GSK3β kinase assay (Ser/Thr 09 peptide Z-lyte FRET).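 Also: kinase activity read as coumarin to fluorescein emission ratio, 11-point threefold dilutions from 10 µM to 0.0003 µM in duplicate, unphosphorylated and phosphorylated peptide as 0% and 100% controls.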 Format: biochemical. To be noted: 46 μM ATP, 1 h room temperature.
In assay [5] the target is recombinant DYRK1A kinase (Homo sapiens (Human), UniProt Q13627). Briefly: DYRK1A kinase assay (Ser/Thr 18 peptide Z-lyte FRET).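 Also: Read-out is the coumarin to fluorescein emission ratio, referenced to unphosphorylated (0%) and phosphorylated (100%) Ser/Thr 18 peptide controls, values from dose-response curves by non-linear regression.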 Format: biochemical. To be noted: 30 μM ATP, 1 h room temperature.
The subject of assay [6] is Wnt pathway (Sp5-Luc reporter, TCF/LEF binding sites) in SW480 colon carcinoma cells. Briefly: Screening assay for Wnt activity: Sp5-Luc reporter gene assay.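 As to all read-outs here: firefly luciferase luminescence read in stably transduced SW480 cells carrying the Sp5 promoter reporter with eight TCF/LEF sites, compounds given in 0.1% DMSO final.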 To be noted: Homo sapiens; for EC50: Sp5-Luc reporter, SW480 cells, 36 to 48 hours; for inhibition at 10 µM: SW480, read-out: percent inhibition at 10 μM. Format: cell-based, human.
Description: The screening assay for Wnt activity is described as follows.
Following incubation, 15 μl of BriteLite Plus luminescence reagent (Perkin Elmer) was added to each well of the 384-well assay plates. The plates were placed on an orbital shaker for 2 min and then luminescence was quantified using the Envision (Perkin Elmer) plate reader.
[7] abbreviates: SH-SY5Y cells, overnight (16-18 h) exposure.

Like-named read-outs stand apart in the source and are kept apart here.

Sequence of recombinant GSK3β kinase (P49841 whole entry): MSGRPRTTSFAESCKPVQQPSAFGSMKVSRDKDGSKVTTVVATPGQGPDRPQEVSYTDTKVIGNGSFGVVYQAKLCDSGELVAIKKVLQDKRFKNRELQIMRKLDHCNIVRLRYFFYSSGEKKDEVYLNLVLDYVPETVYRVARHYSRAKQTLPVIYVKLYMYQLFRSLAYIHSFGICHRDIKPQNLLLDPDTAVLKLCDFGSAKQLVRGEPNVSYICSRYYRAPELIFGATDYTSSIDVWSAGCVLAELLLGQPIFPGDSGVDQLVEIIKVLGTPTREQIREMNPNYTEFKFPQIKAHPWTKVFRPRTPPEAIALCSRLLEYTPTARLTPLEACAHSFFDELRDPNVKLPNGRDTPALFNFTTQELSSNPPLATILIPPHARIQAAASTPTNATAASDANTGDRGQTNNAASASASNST

As for `CN(C)C1CCC(C(=O)Nc2cc3cc(-c4cnn(C)c4)ccc3cn2)CC1` (stereo in doubt) [Compound 1081, trans-4-(Dimethylamino)-N-(6-(1-methyl-1H-pyrazol-4-yl)isoquinolin-3-yl)cyclohexane-1-carboxamide], the concentration for a half-maximal effect (EC50) in assay [1] (setting [7]) worked out at 470 nM; in assay [2], 4650 nM; in assay [3] it was 1100 nM; in assay [4], 82 nM; in assay [5], 2.2 nM; in assay [6] it was 2730 nM.
With `CC(F)(F)CN1CCC(C(=O)Nc2cc3cc(-c4cncs4)ccc3cn2)CC1` [Compound 731, 1-(2,2-Difluoropropyl)-N-(6-(thiazol-5-yl)isoquinolin-3-yl)piperidine-4-carboxamide], the concentration for a half-maximal effect (EC50) in assay [1] (setting [7]) is 450 nM; in assay [2], 1100 nM; in assay [3] it was 1180 nM; in assay [4], 42 nM; in assay [5], 1.4 nM; in assay [6] it was 3050 nM.
Regarding `Cn1ncc(-c2ccc3cnc(NC(=O)[C@H]4CC[C@H](CO)CC4)cc3c2)c1CN1CCCCC1` [Compound 798, trans-4-(Hydroxymethyl)-N-(6-(1-methyl-5-(piperidin-1-ylmethyl)-1H-pyrazol-4-yl)isoquinolin-3-yl)cyclohexane-1-carboxamide], the concentration for a half-maximal effect (EC50) in assay [1] (setting [7]) turned out to be 320 nM; in assay [2], 613 nM; in assay [3], 1270 nM; in assay [4] it was 31 nM; in assay [5], 3.1 nM; in assay [6] it was 594 nM.
For `Cn1ncc(-c2ccc3cnc(NC(=O)C4CCOCC4)cc3c2)c1CN1CCCCC1` [Compound 839, N-(6-(1-Methyl-5-(piperidin-1-ylmethyl)-1H-pyrazol-4-yl)isoquinolin-3-yl) tetrahydro-2H-pyran-4-carboxamide], the concentration giving a half-maximal response (EC50) came out at 254 nM in assay [1] (setting [7]); 1180 nM in assay [2]; 3280 nM in assay [3]; 17 nM in assay [4]; 3.8 nM in assay [5]; 776 nM in assay [6].
`Cc1nnc(-c2ccc3cnc(NC(=O)[C@H]4CC[C@H](CO)CC4)cc3c2)s1` [Compound 888, trans-4-(Hydroxymethyl)-N-(6-(5-methyl-1,3,4-thiadiazol-2-yl)isoquinolin-3-yl)cyclohexane-1-carboxamide]: the EC50 worked out at 195 nM in assay [1] (setting [7]); 2470 nM in assay [2]; 3940 nM in assay [3]; 8 nM in assay [4]; 1.4 nM in assay [5]; 1040 nM in assay [6].
In the case of `Cc1nnc(-c2ccc3cnc(NC(=O)CN4C5CCC4CC5)cc3c2)s1` [Compound 959, 2-(7-Azabicyclo[2.2.1]heptan-7-yl)-N-(6-(5-methyl-1,3,4-thiadiazol-2-yl)isoquinolin-3-yl)acetamide], the concentration for a half-maximal effect (EC50) in assay [1] (SH-SY5Y) was 443 nM; in assay [2], more than 10000 nM; in assay [3], more than 10000 nM; in assay [4], 45 nM; in assay [5], 15.4 nM; in assay [6], 4240 nM. Moreover, the values for the inhibition at 10 µM in assay [2] and in assay [3] were 45% and 6.1%, respectively.
As to `Cc1nnc(-c2ccc3cnc(NC(=O)CN4C5CCC4COC5)cc3c2)s1` [Compound 962, 2-(3-Oxa-8-azabicyclo[3.2.1]octan-8-yl)-N-(6-(5-methyl-1,3,4-thiadiazol-2-yl)isoquinolin-3-yl)acetamide], the EC50 in assay [1] (SH-SY5Y) is 447 nM; in assay [2], more than 10000 nM; in assay [3] it was more than 10000 nM; in assay [4], 57 nM; in assay [5], 23.6 nM; in assay [6], more than 10000 nM. Further, the inhibition at 10 µM came out at 30.9% in assay [2], 9.6% in assay [3] and 45% in assay [6].
For the compound `CN1CCC(C(=O)Nc2cc3cc(-c4cnn(C)c4)c(Cl)cc3cn2)CC1` [Compound 1027, N-(7-Chloro-6-(1-methyl-1H-pyrazol-4-yl)isoquinolin-3-yl)-1-methylpiperidine-4-carboxamide], the EC50 in assay [1] (setting [7]) is 2200 nM; in assay [2], 488 nM; in assay [3], more than 10000 nM; in assay [4], 3070 nM; in assay [5], 50 nM; in assay [6] it was 875 nM. The inhibition at 10 µM in assay [3] was found to be 0%.
With `Cc1ncc(-c2ccc3cnc(NC(=O)CN4CCCCC4)cc3c2)o1` [Compound 1028, N-(6-(2-Methyloxazol-5-yl)isoquinolin-3-yl)-2-(piperidin-1-yl)acetamide], the half-maximal effective concentration (EC50) in assay [1] (setting [7]) was 536 nM; in assay [2] it was 3520 nM; in assay [3] it was 1930 nM; in assay [4] it was 104 nM; in assay [5] it was 22.5 nM; in assay [6], 3870 nM.
`Cn1cc(-c2ccc3cnc(NC(=O)CCN4CCOCC4)cc3c2)cn1` [Compound 1034, N-(6-(1-Methyl-1H-pyrazol-4-yl)isoquinolin-3-yl)-3-morpholinopropanamide]: the concentration giving a half-maximal response (EC50) in assay [1] (setting [7]) is 430 nM; in assay [2], 3240 nM; in assay [3], 3320 nM; in assay [4], 27 nM; in assay [5] it was 1.9 nM; in assay [6], 2040 nM.
As to `Cn1cc(-c2ccc3cnc(NC(=O)[C@H]4C[C@H](N5CCOCC5)C4)cc3c2)cn1` [Compound 1035, trans-N-(6-(1-Methyl-1H-pyrazol-4-yl)isoquinolin-3-yl)-3-morpholinocyclobutane-1-carboxamide], the concentration for a half-maximal effect (EC50) was 129 nM in assay [1] (setting [7]); 2460 nM in assay [2]; 1030 nM in assay [3]; 10 nM in assay [4]; 2.6 nM in assay [5]; 1370 nM in assay [6].
Regarding `CN1CCC(N(C)C(=O)Nc2cc3cc(-c4cnn(C)c4)ccc3cn2)CC1` [Compound 1037, 1-methyl-3-(6-(1-methyl-1H-pyrazol-4-yl)isoquinolin-3-yl)-1-(1-methylpiperidin-4-yl)urea], the EC50 in assay [1] (setting [7]) was more than 10000 nM; in assay [2] it was more than 10000 nM; in assay [3] it was 7520 nM; in assay [4] it was 1920 nM; in assay [5], 10.2 nM; in assay [6], 3640 nM. For the same compound, the inhibition at 10 µM in assay [2] turned out to be 32.7%.
In the case of `CNc1ncc(-c2ccc3cnc(NC(=O)C4CCNCC4)cc3c2)s1` [Compound 1040, N-(6-(2-(Methylamino)thiazol-5-yl)isoquinolin-3-yl)piperidine-4-carboxamide], the EC50 came to 1600 nM in assay [1] (setting [7]); 2680 nM in assay [2]; 1180 nM in assay [3]; 98 nM in assay [4]; 4.8 nM in assay [5]; 1210 nM in assay [6].
Turning to `CNc1ncc(-c2ccc3cnc(NC(=O)C4CCN(C)CC4)cc3c2)s1` [Compound 1041, 1-Methyl-N-(6-(2-(methylamino)thiazol-5-yl)isoquinolin-3-yl)piperidine-4-carboxamide], the EC50 turned out to be 1300 nM in assay [1] (setting [7]); 2760 nM in assay [2]; 941 nM in assay [3]; 58 nM in assay [4]; 3.3 nM in assay [5]; 776 nM in assay [6].
Turning to `CCN(CC)c1ncc(-c2ccc3cnc(NC(=O)CN4CCC(F)CC4)cc3c2)s1` [Compound 1047, N-(6-(2-(Diethylamino)thiazol-5-yl)isoquinolin-3-yl)-2-(4-fluoropiperidin-1-yl)acetamide], the concentration for a half-maximal effect (EC50) is more than 10000 nM in assay [1] (setting [7]); more than 10000 nM in assay [2]; more than 10000 nM in assay [3]; 4740 nM in assay [4]; 463 nM in assay [5]; more than 10000 nM in assay [6]. The values for the inhibition at 10 µM in assay [2], in assay [3] and in assay [6] were 41.7%, 4.5% and 32.6%, respectively.
Regarding `CCN(CC)c1ncc(-c2ccc3cnc(NC(=O)CN4CCN(C)CC4)cc3c2)s1` [Compound 1048, N-(6-(2-(Diethylamino)thiazol-5-yl)isoquinolin-3-yl)-2-(4-methylpiperazin-1-yl)acetamide], the EC50 in assay [1] (setting [7]) is 4700 nM; in assay [2] it was 4060 nM; in assay [3], more than 10000 nM; in assay [4] it was 5810 nM; in assay [5] it was 541 nM; in assay [6], 9380 nM. In addition, in assay [3], the inhibition at 10 µM came out at 4.3%.
Regarding `CN1CCN(C(=O)[C@H]2CC[C@H](C(=O)Nc3cc4cc(-c5cnn(C)c5)ccc4cn3)CC2)CC1` [Compound 1091, trans-N-(6-(1-Methyl-1H-pyrazol-4-yl)isoquinolin-3-yl)-4-(4-methylpiperazine-1-carbonyl)cyclohexane-1-carboxamide], the 50% effective concentration (EC50) is 869 nM in assay [1] (setting [7]); 1250 nM in assay [2]; 69 nM in assay [4]; 1.4 nM in assay [5]; 2950 nM in assay [6].
The matching figures for `CC(C)CN1CCC(C(=O)Nc2cc3cc(-c4nnnn4C)ccc3cn2)CC1` [Compound 1092, 1-Isobutyl-N-(6-(1-methyl-1H-tetrazol-5-yl)isoquinolin-3-yl)piperidine-4-carboxamide]: 131 nM, 2980 nM, 132 nM, 62.7 nM and 247 nM.
